In ChEMBL document CHEMBL3868620, “Synthesis, DNA binding and antitrypanosomal activity of benzimidazole analogues of DAPI” (Bioorg Med Chem Lett, 2016):

Key:
[1] = Cytotoxicity against rat L6 cells assessed as reduction in cell viability after 70 hrs by Alamar blue assay; format: toxicity
[2] = Binding affinity to poly(dA-dT)n DNA (unknown origin) assessed as change in melting temperature at 0.3 molar ratio of compound:DNA by spectrophotometric analysis
[3] = Selectivity index, ratio OF IC50 for rat L6 cells to IC50 for bloodstream form of Trypanosoma brucei rhodesiense STIB900; format: functional
[4] = tested on: Trypanosoma brucei rhodesiense; test: Antitrypanosomal activity against bloodstream form of Trypanosoma brucei rhodesiense STIB900 after 70 hrs by Alamar blue assay; format: functional; settings: STIB900, 70 h

SMILES	IC50 at 70 h [1]	ΔTm [2]	Ratio IC50 [3]	IC50 [4]
N=C(N)c1ccc(-c2cc3ccc(C(=N)N)cc3[nH]2)cc1 [DAPI]	860 nM	> 27 °C	48	–
N=C(N)c1ccc(-c2nc3cc(C(=N)N)ccc3n2C2CCCCC2)cc1	> 162000 nM	2 °C	>306	529 nM
N=C(N)c1ccc(-c2nc3cc(C(=N)N)ccc3[nH]2)cc1	26300 nM	24.7 °C	848	31 nM
N=C(N)c1ccc2nc(-c3ccc(C(=N)N)o3)[nH]c2c1	150000 nM	10.1 °C	3229	48 nM
CCn1c(-c2ccc(C(=N)N)cc2)nc2cc(C(=N)N)ccc21	> 207000 nM	5.5 °C	>3234	64 nM
c1cc2nc(-c3ccc(C4=NCCN4)s3)[nH]c2cc1C1=NCCN1	129000 nM	26 °C	1925	67 nM
N=C(N)c1ccc2nc(-c3ccc(C(=N)N)s3)[nH]c2c1	26700 nM	25.2 °C	1405	19 nM
N=C(N)c1ccc(-c2nc3ccc(C(=N)N)cc3n2O)cc1	> 210000 nM	1.1 °C	>25	8430 nM
Cn1c(-c2ccc(C(=N)N)cc2)nc2cc(C(=N)N)ccc21	> 169000 nM	8 °C	>11266	15 nM
CCCn1c(-c2ccc(C(=N)N)cc2)nc2cc(C(=N)N)ccc21	> 137000 nM	2.5 °C	>4419	31 nM
